In publication PMC3466269, “A Comprehensive Strategy to Discover Inhibitors of the Translesion Synthesis DNA Polymerase κ” (PLoS ONE, 2012):

Columns and labels:
[1] = biological target: T1, Yeast pol δ (Saccharomyces cerevisiae, UniProt P15436); test: Radioactive gel-based primer extension assay, pol δ; type: biochemical
T1 sequence (P15436 1-1097): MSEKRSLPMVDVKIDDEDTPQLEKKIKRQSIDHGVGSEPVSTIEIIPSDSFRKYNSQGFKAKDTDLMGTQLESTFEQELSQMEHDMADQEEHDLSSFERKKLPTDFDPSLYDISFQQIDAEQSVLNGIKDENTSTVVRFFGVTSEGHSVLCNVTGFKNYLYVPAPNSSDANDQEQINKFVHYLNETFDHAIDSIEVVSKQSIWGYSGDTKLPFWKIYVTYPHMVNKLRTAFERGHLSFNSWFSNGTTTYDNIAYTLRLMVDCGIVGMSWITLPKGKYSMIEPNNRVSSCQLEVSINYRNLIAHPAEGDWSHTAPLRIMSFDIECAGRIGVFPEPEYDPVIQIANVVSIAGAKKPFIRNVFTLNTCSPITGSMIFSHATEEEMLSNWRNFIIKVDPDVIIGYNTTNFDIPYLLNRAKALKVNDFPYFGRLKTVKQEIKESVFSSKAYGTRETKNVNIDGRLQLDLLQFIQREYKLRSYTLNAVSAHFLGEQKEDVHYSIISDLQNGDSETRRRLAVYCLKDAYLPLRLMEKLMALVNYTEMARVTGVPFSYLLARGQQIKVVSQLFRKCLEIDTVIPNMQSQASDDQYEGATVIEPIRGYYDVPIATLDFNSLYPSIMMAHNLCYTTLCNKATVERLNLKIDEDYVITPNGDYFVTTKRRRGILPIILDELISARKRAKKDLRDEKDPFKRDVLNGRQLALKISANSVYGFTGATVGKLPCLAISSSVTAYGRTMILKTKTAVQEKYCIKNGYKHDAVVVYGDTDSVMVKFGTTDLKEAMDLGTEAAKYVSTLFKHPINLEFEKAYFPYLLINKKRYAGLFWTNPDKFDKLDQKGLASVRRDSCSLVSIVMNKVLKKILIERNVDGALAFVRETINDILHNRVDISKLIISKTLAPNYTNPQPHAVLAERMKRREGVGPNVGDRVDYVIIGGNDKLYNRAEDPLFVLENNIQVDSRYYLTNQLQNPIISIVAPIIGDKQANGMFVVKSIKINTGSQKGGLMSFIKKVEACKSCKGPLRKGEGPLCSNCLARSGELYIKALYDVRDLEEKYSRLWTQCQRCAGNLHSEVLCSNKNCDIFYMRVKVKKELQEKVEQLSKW
T1 sequence (P46957 1-487 partner): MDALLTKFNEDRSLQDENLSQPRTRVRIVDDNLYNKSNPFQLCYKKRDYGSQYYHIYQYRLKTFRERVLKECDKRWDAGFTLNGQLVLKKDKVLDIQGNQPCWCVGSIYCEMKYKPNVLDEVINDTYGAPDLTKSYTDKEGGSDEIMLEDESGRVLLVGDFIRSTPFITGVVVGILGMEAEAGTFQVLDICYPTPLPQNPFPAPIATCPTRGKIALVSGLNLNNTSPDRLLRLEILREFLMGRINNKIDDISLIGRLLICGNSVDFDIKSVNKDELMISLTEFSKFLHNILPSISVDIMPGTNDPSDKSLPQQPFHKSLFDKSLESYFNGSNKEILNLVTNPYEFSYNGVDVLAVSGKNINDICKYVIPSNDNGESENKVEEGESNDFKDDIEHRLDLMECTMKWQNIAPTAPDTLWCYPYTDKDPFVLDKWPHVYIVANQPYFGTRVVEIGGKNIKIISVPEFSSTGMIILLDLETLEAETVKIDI
T1 sequence (P47110 1-350 partner): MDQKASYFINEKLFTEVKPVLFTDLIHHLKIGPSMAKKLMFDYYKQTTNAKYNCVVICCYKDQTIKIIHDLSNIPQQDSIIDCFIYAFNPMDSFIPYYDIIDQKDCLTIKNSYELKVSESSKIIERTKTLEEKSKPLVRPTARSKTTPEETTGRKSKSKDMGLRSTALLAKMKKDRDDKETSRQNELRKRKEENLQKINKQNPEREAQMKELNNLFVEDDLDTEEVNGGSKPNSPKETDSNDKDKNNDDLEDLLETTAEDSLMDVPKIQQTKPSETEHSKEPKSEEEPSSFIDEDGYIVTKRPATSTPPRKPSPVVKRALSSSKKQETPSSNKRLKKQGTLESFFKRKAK
Method: The reactions with pol κ, pol η, and pol ι were carried out in the buffers containing 25 mM Tris-HCl, pH 7.5, 8 mM MgCl2, 10% glycerol, 100 µg/mL bovine serum albumin, and 5 mM DTT. Buffers for pol δ reactions contained 40 mM Hepes-KOH, pH 6.8, 10% glycerol, 200 µg/mL bovine serum albumin, 1 mM DTT, and 8 mM MgCl2. Final concentration of pol κ, pol η, pol ι, or pol δ in the reaction was 0.25 nM, 1 nM, 2.5 nM, or 4 nM, respectively. In this assay, a polymerase was preincubated with the compound for 15 min at room temperature. Primer extensions were then initiated by the addition of DNA substrate at final concentration of 5 nM and carried out for 30 min at room temperature in the presence of 100 µM dCTP and dGTP. The reactions were terminated by the addition of an equal volume of a dye solution containing 95% (v/v) formamide, 10 mM EDTA, 0.03% (w/v) xylene cyanol, and 0.03% (w/v) bromphenol blue. Reaction products were separated through a 15% acrylamide gel containing 8 M urea and visualized with a PhosphorImager screen. The ratio of extended primer to the total amount of primer was measured using ImageQuant 5.2 software to calculate the percentage of primer extended. IC50 values were determined by fitting the data to variable slope four-parameter equations using GraphPad Prism 5. […]

[2] = tested on: XP30RO cells (XP-V); test: Cell survival assay, CellTiter-Glo Luminescent Cell Viability Assay, with or without UV; type: cell-based, Human; settings: CellTiter-Glo (ATP content); 24 µM, UV 1.5, 4.5 or 7.5 J/m^2
From the text: Supplementary file pone.0045032.s001.tif: Figure S1 Effect of candesartan cilexetil on UV-induced cytotoxicity using CellTiter-Glo Luminescent Cell Viability Assay. […] I: candesartan cilexetil. (TIF) Click here for additional data file.

IC50 pol δ ([1]; maximum concentration 80 µM): could not be determined
Structure (SMILES): CCOc1nc2cccc(C(=O)OC(C)OC(=O)OC3CCCCC3)c2n1Cc1ccc(-c2ccccc2-c2nnn[nH]2)cc1 (stereo not drawn) [candesartan cilexetil, Candesartan cilexetil]
Inhibition of pol δ DNA synthesis ([1]; several concentrations, maximum 80 µM, data not shown): only at 80 µM concentration was there detectable inhibition
Effect on UV-induced cytotoxicity [2]: comparable results were obtained
